Results taken from the supplement of paper PMC10307832.

Columns and labels:
Test in all cases: relative viability (nuclei count vs DMSO), 5 days (fraction); higher = more cells survive
BAM7 + Palbociclib = compound: CCOC1=CC=CC=C1N=NC2=C(NN(C2=O)C3=NC(=CS3)C4=CC=CC=C4)C [BAM7] + CC(=O)c1c(C)c2cnc(Nc3ccc(N4CCNCC4)cn3)nc2n(C2CCCC2)c1=O [Palbociclib] (partner 0.5 µM)
Method in brief: (§1)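 Five library-drug doses in √10 steps were combined with a fixed anchor-drug dose, or a single drug was given alone, by pin tool to lung cancer cell lines in 1536-well plates the day after seeding. Nuclei were stained and counted after 5 days. Relative viability is the nuclei count in treated wells over that in vehicle wells, taken as the median of duplicate plates.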

BAM7 + Crizotinib = compound: CCOC1=CC=CC=C1N=NC2=C(NN(C2=O)C3=NC(=CS3)C4=CC=CC=C4)C [BAM7] + C[C@@H](Oc1cc(-c2cnn(C3CCNCC3)c2)cnc1N)c1c(Cl)ccc(F)c1Cl [Crizotinib] (partner 1 µM)
Method in brief: as §1

[1] = compound: CCn1c(-c2nonc2N)nc2c(C#CC(C)(C)O)ncc(OC[C@H]3CCCNC3)c21 + CC(C)C[C@H](NC(=O)[C@H](Cc1ccccc1)NC(=O)c1cnccn1)B(O)O [Bortezomib] (partner 0.002 µM)
Method in brief: as §1

[2] = compound: CCn1c(-c2nonc2N)nc2c(C#CC(C)(C)O)ncc(OC[C@H]3CCCNC3)c21 + O=C(CCCCCCC(=O)Nc1ccccc1)NO [Vorinostat] (partner 1 µM)
Method in brief: as §1

Cell Line	relative viability (BAM7 + Palbociclib; first compound 0.5 µM)	relative viability (BAM7 + Palbociclib; first compound 5 µM)	relative viability (BAM7 + Palbociclib; first compound 15.81 µM)	relative viability (BAM7 + Palbociclib; first compound 50 µM)	relative viability (BAM7 + Crizotinib; first compound 0.5 µM)	relative viability (BAM7 + Crizotinib; first compound 5 µM)	relative viability (BAM7 + Crizotinib; first compound 15.81 µM)	relative viability (BAM7 + Crizotinib; first compound 50 µM)	relative viability ([1]; first compound 0.01 µM)	relative viability ([1]; first compound 0.03162 µM)	relative viability ([1]; first compound 0.1 µM)	relative viability ([1]; first compound 0.3162 µM)	relative viability ([1]; first compound 1 µM)	relative viability ([2]; first compound 0.01 µM)	relative viability ([2]; first compound 0.03162 µM)	relative viability ([2]; first compound 0.1 µM)	relative viability ([2]; first compound 0.3162 µM)	relative viability ([2]; first compound 1 µM)
HOP-62	0.45	0.385	0.454	0.491	0.931	1.02	0.83	0.854	0.623	0.615	0.803	0.376	0.922	0.635	0.688	0.644	0.555	0.644
LC-2-ad	0.487	0.478	0.545	0.485	0.488	0.518	0.46	0.463	0.986	0.993	1.03	0.977	0.968	0.736	0.715	0.712	0.659	0.69
LCLC-97TM1	0.272	0.185		0.186	0.305	0.386	0.245	0.332	0.756	0.383	0.794	0.459	0.522	0.8	0.722	0.774	0.624	0.664
LCLC-103H	0.507	0.493	0.484	0.529	1.08	1.03	1.01	0.804	1.02	1.12	1.08	1.07	0.937	0.87	0.752	0.725	0.757	0.81
LOU-NH91	0.458	0.569	0.538	0.517	0.722	0.801	0.719	0.705	0.57	0.344	0.481	0.448	0.47	0.899	0.828	1	0.767	0.794
LU99A	0.425	0.372	0.383	0.414	0.602	0.542	0.567	0.555	1.21	1.29	1.04	1.04	1.08	0.52	0.531	0.46	0.453	0.571
LXF-289	0.63	0.62	0.616	0.616	0.924	0.876	0.773	0.787	1	0.963	1	0.976	1.02	0.822	0.791	0.737	0.737	0.808
NCI-H23	0.612	0.479	0.466	0.519	0.587	0.535	0.424	0.515	0.974	1.06	0.913	0.861	1.13	0.559	0.591	0.626	0.558	0.531
NCI-H322M	0.527	0.564	0.524	0.509	0.859	0.798	0.811	0.641	1.21	1.18	1.26	1.19	1.19	0.75	0.724	0.754	0.702	0.869
NCI-H441	0.285	0.191	0.205	0.267	0.776	0.656	0.706	0.717	0.47	0.451	0.459	0.288	0.449	0.786	0.85	0.937	0.614	0.663
NCI-H460	0.179	0.148	0.216	0.165	1.16	1.13	0.743	0.96	1.01	1.26	1.13	1.04	1.12	0.722	0.857	0.757	0.64	0.767
NCI-H520	0.262	0.233	0.235	0.26	0.705	0.747	0.856	0.684	0.79	0.887	0.529	0.249	0.399	0.706	0.711	0.585	0.543	0.5
NCI-H647	0.506	0.431	0.509	0.447	0.758	1.25	1.14	1.08	0.972	1.25	0.937	1.02	0.812	0.616	0.491	0.603	0.358	0.587
NCI-H650	0.324	0.32	0.272	0.318	0.649	0.764	0.656	0.69	0.679	0.604	0.759	0.758	0.635	0.435	0.384	0.393	0.423	0.396
NCI-H661	0.443	0.433	0.422	0.422	1.27	1.08	0.971	0.931	0.883	0.75	0.739	0.972	0.855	0.787	0.788	0.788	0.742	0.735
NCI-H727	0.579	0.689	0.714	0.731	0.843	0.799	0.714	0.675	0.782	0.747	0.999	0.613	0.791	1.28	1.12	1.19	1.09	1.26
NCI-H838	0.24	0.243	0.222	0.218	0.867	0.904	0.803	0.783	1.25	0.971	0.945	0.545	0.655	0.728	0.786	0.722	0.685	0.711
NCI-H1355	0.415	0.385	0.377	0.416	0.968	1.05	0.937	0.987	1.23	1.11	1.15	1.13	1.19	0.659	0.549	0.617	0.55	0.619

Cell Line	relative viability (BAM7 + Palbociclib; first compound 0.5 µM)	relative viability (BAM7 + Palbociclib; first compound 5 µM)	relative viability (BAM7 + Palbociclib; first compound 15.81 µM)	relative viability (BAM7 + Palbociclib; first compound 50 µM)	relative viability (BAM7 + Crizotinib; first compound 0.5 µM)	relative viability (BAM7 + Crizotinib; first compound 5 µM)	relative viability (BAM7 + Crizotinib; first compound 15.81 µM)	relative viability (BAM7 + Crizotinib; first compound 50 µM)	relative viability ([1]; first compound 0.01 µM)	relative viability ([1]; first compound 0.03162 µM)	relative viability ([1]; first compound 0.1 µM)	relative viability ([1]; first compound 0.3162 µM)	relative viability ([1]; first compound 1 µM)	relative viability ([2]; first compound 0.01 µM)	relative viability ([2]; first compound 0.03162 µM)	relative viability ([2]; first compound 0.1 µM)	relative viability ([2]; first compound 0.3162 µM)	relative viability ([2]; first compound 1 µM)
NCI-H1437	0.318	0.326	0.306	0.326	1	1.16	0.53	0.937	0.616	0.538	0.593	0.357	0.483	0.812	0.794	0.955	0.791	0.952
NCI-H1650	0.351	0.268	0.304	0.456	0.882	1.07	0.939	0.848	0.214	0.195	0.223	0.185	0.202	0.614	0.628	0.642	0.377	0.462
NCI-H1651	0.528	0.52	0.512	0.508	0.826	0.889	0.871	0.886	0.905	0.901	0.864	0.903	0.989	0.553	0.606	0.613	0.52	0.632
NCI-H1666	0.628	0.627	0.669	0.677	1.07	1.02	1.03	0.967	0.688	0.678	0.869	0.762	0.841	1.02	1.07	0.986	1	0.942
NCI-H1734	0.38	0.332	0.364	0.318	0.868	0.634	0.556	0.685	0.872	0.965	0.875	0.344	0.648	0.773	0.857	0.744	0.7	0.74
NCI-H1755	0.462	0.466	0.439	0.436	0.917	0.935	0.829	0.85	0.956	0.917	0.939	0.923	0.906	0.725	0.66	0.637	0.762	0.841
NCI-H1915	0.598	0.548	0.516	0.501	0.892	0.918	0.874	0.891	0.982	1.01	0.904	0.975	0.921	0.57	0.526	0.474	0.513	0.5
NCI-H1975	0.565	0.555	0.519	0.652	0.792	0.773		0.824	0.379	0.351	0.438	0.314	0.289	0.705	0.72	0.717	0.631	0.684
NCI-H1993	0.502	0.539	0.453	0.478	0.751	0.843	0.771	0.826	1.23	1.23	1.11	1.03	0.975	1.01	0.805	0.825	0.776	0.543
NCI-H2009	0.189	0.189	0.228	0.29	1.12	1.05	0.973	0.987	0.997	0.944	1.05	1.03	0.958	0.726	0.708	0.788	0.706	0.821
NCI-H2023	0.375	0.316	0.293	0.327	0.631	0.59	0.454	0.524	0.924	0.977	0.904	0.861	0.912	0.615	0.642	0.58	0.394	0.488
NCI-H2085	0.462	0.483	0.446	0.45	0.829	0.956	0.75	0.859	0.861	1.02	1.03	1.03	1.05	0.822	0.785	0.785	0.712	0.796
NCI-H2087	0.272	0.255	0.229	0.292	0.887	0.916	0.856	0.7	0.682	0.873	0.655	0.766	0.774	0.971		0.706	0.517	0.96
NCI-H2126	0.334	0.332	0.345	0.362	0.969	0.88	0.832	0.87	1.05	1.13	1.08	1.09	1.1	0.754	0.743	0.791	0.741	0.792
NCI-H2228	0.853	0.966	1.19	1.07	0.657	0.426	0.349	0.641	1.06	1.28	0.912	0.584	0.737	0.539	0.828	0.409	0.7	0.497
NCI-H2347	0.426	0.457	0.425	0.367	0.738	0.995	0.674	0.745	0.644	0.861		0.888	0.933	0.602	0.522	0.611	0.543	0.55
NCI-H2405	0.507	0.577	0.546	0.553	0.896	0.965	0.796	0.805	0.982	0.897	0.91	0.929	0.967	0.811	0.838	0.913	0.854	1.06
NCI-H3122	0.174	0.225	0.186	0.198	0.282	0.378	0.33	0.312	1.05	1.03	1.07	1.1	1.08	1.07	1.01	1.05	1.06	0.994
